# In US10035760B2, “Inhibitors of human immunodeficiency virus replication” (priority 2013, dated 2018):
# Where two headings read alike, the source gives them in different places.
# System: recombinant NL4-3 virus (Renilla luciferase) in MT-2 cells
# Experiment: HIV cell culture assay (antiviral activity, luciferase readout in infected MT-2 cells)
# Type: cell-based
# Conditions: Renilla
# Method in brief: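 EC50 derived via median-effect equation from luciferase activity in MT-2 cells after 4–5 day infection, compound serially diluted. Virus: recombinant NL4-3 with Renilla luciferase replacing part of nef, made in 293T cells.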
# [1] = NL43, read-out: Activity, antiviral activity class, recombinant NL4-3 Renilla luciferase virus in MT-2 cells
# [2] = NL43, recombinant NL4-3 Renilla luciferase virus in MT-2 cells
Compound,EC50 [1] [nM],EC50 [2] [nM]
"CN(C(=O)[C@H](Cc1ccccc1)NC(=O)NS(=O)(=O)c1ccccc1-c1ccoc1)c1ccc2c(c1)OCO2 [Example 50, (S)—N-(benzo[d][1,3]dioxol-5-yl)-2-(3-((2-(furan-3-yl)phenyl)sulfonyl)ureido)-N-methyl-3-phenylpropanamide]",100 to 1000,
"C=Cc1cccc(S(=O)(=O)NC(=O)N[C@@H](Cc2ccccc2)C(=O)N(CC)c2ccc(OC)cc2)c1 [Example 138, (S)—N-ethyl-N-(4-methoxyphenyl)-3-phenyl-2-(3-((3-vinylphenyl)sulfonyl)ureido)propanamide]",< 100,50
"Cc1ccccc1S(=O)(=O)NC(=O)N[C@@H](Cc1ccccc1)C(=O)N(C)c1ccccc1 [Example CA-67, (S)—N-methyl-N, 3-diphenyl-2-(3-(o-tolylsulfonyl)ureido)propanamide]",100 to 1000,490
"COc1ccc(N(Cc2ccncc2)C(=O)[C@H](Cc2ccccc2)NC(=O)NS(=O)(=O)c2ccccc2C)cc1 [Example ZY-4, (S)—N-(4-methoxyphenyl)-3-phenyl-N-(pyridin-4-ylmethyl)-2-(3-(o-tolylsulfonyl)ureido)propanamide]",1000 to 10000,
"Cc1ccccc1S(=O)(=O)NC(=O)N[C@@H](Cc1cccc(F)c1)C(=O)N(C)c1ccc2c(c1)OCO2 [Example 85, (S)—N-(benzo[d][1,3]dioxol-5-yl)-3-(3-fluorophenyl)-N-methyl-2-(3-(o-tolylsulfonyl)ureido)propanamide]",100 to 1000,
COc1cccc(N(C)C(=O)[C@H](Cc2ccccc2)NC(=O)NS(=O)(=O)c2ccccc2)c1 [Example 89],100 to 1000,
"Cc1ccccc1S(=O)(=O)NC(=O)N[C@@]1(C(=O)N(C)c2ccc3c(c2)OCO3)C[C@H]1c1ccccc1 [Example 79, (1S,2S)—N-(benzo[d][1,3]dioxol-5-yl)-N-methyl-2-phenyl-1-(3-(o-tolylsulfonyl)ureido)cyclopropanecarboxamide]",10000 to 100000,
"CN(C(=O)[C@H](Cc1ccccc1)NC(=O)NS(=O)(=O)C(C)(C)C)c1ccc2c(c1)OCO2 [Example 46, (S)—N-(benzo[d][1,3]dioxol-5-yl)-2-(3-(tert-butylsulfonyl)ureido)-N-methyl-3-phenylpropanamide]",1000 to 10000,
"Cc1ccccc1S(=O)(=O)NC(=O)N[C@@H](Cc1ccccc1)C(=O)N(C)c1ccc2c(c1)CCC2 [Example 207, (S)—N-(2,3-dihydro-1H-inden-5-yl)-N-methyl-3-phenyl-2-(3-(o-tolylsulfonyl)ureido)propanamide]",< 100,
"CCN(C(=O)[C@H](Cc1ccccc1)NC(=O)NS(=O)(=O)c1cccc(-c2ccnn2C)c1C)c1ccc(OC)cc1 [Example 158, (S)—N-ethyl-N-(4-methoxyphenyl)-2-(3-((2-methyl-3-(1-methyl-1H-pyrazol-5-yl)phenyl)sulfonyl)ureido)-3-phenylpropanamide]",100 to 1000,230
"CCN(C(=O)[C@H](Cc1ccccc1)NC(=O)NS(=O)(=O)c1ccccc1C)c1ccc2ccccc2c1 [Example 177, (S)—N-ethyl-N-(naphthalen-2-yl)-3-phenyl-2-(3-(o-tolylsulfonyl)ureido)propanamide]",< 100,
"Cc1ccccc1S(=O)(=O)NC(=O)N[C@@H](Cc1ccccc1)C(=O)N(C)c1ccc2cc[nH]c(=O)c2c1 [Example CA-99, (S)—N-methyl-N-(1-oxo-1,2-dihydroisoquinolin-7-yl)-3-phenyl-2-(3-(o-tolylsulfonyl)ureido)propanamide]",1000 to 10000,
"CCN(C(=O)[C@H](Cc1ccccc1)NC(=O)NS(=O)(=O)c1ccccc1C)c1ccc(OC)c(C)c1 [Example CA-78, (S)—N-ethyl-N-(4-methoxy-3-methylphenyl)-3-phenyl-2-(3-(o-tolylsulfonyl)ureido)propanamide]",100 to 1000,120
"CCN(C(=O)[C@H](Cc1ccccc1)NC(=O)NS(=O)(=O)c1cccc(Br)c1C)c1ccc(OC)cc1 [Example 115, (S)-2-(3-((3-bromo-2-methylphenyl)sulfonyl)ureido)-N-ethyl-N-(4-methoxyphenyl)-3-phenylpropanamide]",< 100,
"CN(C(=O)[C@H](Cc1ccccc1)NC(=O)NS(=O)(=O)C1CC1)c1ccc2c(c1)OCO2 [Example 42, (S)—N-(benzo[d][1,3]dioxol-5-yl)-2-(3-(cyclopropylsulfonyl)ureido)-N-methyl-3-phenylpropanamide]",100 to 1000,480
"CN(C(=O)[C@H](Cc1ccccc1)NC(=O)NS(=O)(=O)c1ccccc1)c1ccccc1 [Example 87, (S)—N-methyl-N, 3-diphenyl-2-(3-(phenylsulfonyl)ureido)propanamide]",100 to 1000,
"COc1cc(N(C)C(=O)[C@H](Cc2ccccc2)NC(=O)NS(=O)(=O)c2ccccc2C)cc(OC)c1OC [Example JB-82, (S)—N-methyl-3-phenyl-2-(3-(o-tolylsulfonyl)ureido)-N-(3,4,5-trimethoxyphenyl)propanamide]",1000 to 10000,

Compound,EC50 [1] [nM],EC50 [2] [nM]
"Cc1ccccc1S(=O)(=O)NC(=O)N[C@@H](Cc1cc(F)cc(F)c1)C(=O)N(C)c1ccc(OC(F)(F)F)cc1 [Example CA-108, (S)-3-(3,5-difluorophenyl)-N-methyl-2-(3-(o-tolylsulfonyl)ureido)-N-(4-(trifluoromethoxy)phenyl)propanamide]",100 to 1000,
"CN(C(=O)[C@H](Cc1ccccc1)NC(=O)NS(=O)(=O)c1ccccc1-c1ccc(F)nc1)c1ccc2c(c1)OCO2 [Example 148, (S)—N-(benzo[d][1,3]dioxol-5-yl)-2-(3-((2-(6-fluoropyridin-3-yl)phenyl)sulfonyl)ureido)-N-methyl-3-phenylpropanamide]",1000 to 10000,
"Cc1nc2ccc(N(C)C(=O)[C@H](Cc3ccccc3)NC(=O)NS(=O)(=O)c3ccccc3C)cc2o1 [Example CA-86, (S)—N-methyl-N-(2-methylbenzo[d]oxazol-6-yl)-3-phenyl-2-(3-(o-tolylsulfonyl)ureido)propanamide]",< 100,
"CCN(C(=O)[C@H](Cc1ccccc1)NC(=O)NS(=O)(=O)c1c(F)cccc1F)c1ccc(OC)cc1 [Example 118, (S)-2-(3-((2,6-difluorophenyl)sulfonyl)ureido)-N-ethyl-N-(4-methoxyphenyl)-3-phenylpropanamide]",< 100,40
"COc1ccc(S(=O)(=O)NC(=O)N[C@@H](Cc2ccccc2)C(=O)N(C)c2ccc3c(c2)OCO3)cc1 [Example 8, (S)—N-(benzo[d][1,3]dioxol-5-yl)-2-(3-((4-methoxyphenyl)sulfonyl)ureido)-N-methyl-3-phenylpropanamide]",100 to 1000,180
"CCN(C(=O)[C@H](Cc1ccccc1)NC(=O)NS(=O)(=O)c1ccc2c(ccn2CC)c1)c1ccc(OC)cc1 [Example 203, (S)—N-ethyl-2-(3-((1-ethyl-1H-indol-5-yl)sulfonyl)ureido)-N-(4-methoxyphenyl)-3-phenylpropanamide]",100 to 1000,
"CN(C(=O)[C@H](Cc1cc(F)cc(F)c1)NC(=O)NS(=O)(=O)c1cc(F)ccc1F)c1ccc2scnc2c1 [Example ZY-14, (S)—N-(benzo[d]thiazol-5-yl)-3-(3,5-difluorophenyl)-2-(3-((2,5-difluorophenyl)sulfonyl)ureido)-N-methylpropanamide]",100 to 1000,
"CN(C(=O)[C@H](Cc1ccccc1)NC(=O)NS(=O)(=O)C1(C)CC1)c1ccc2c(c1)OCO2 [Example 4, (S)—N-(benzo[d][1,3]dioxol-5-yl)-N-methyl-2-(3-((1-methylcyclopropyl)sulfonyl)ureido)-3-phenylpropanamide]",1000 to 10000,1110
"CCN(C(=O)[C@H](Cc1ccccc1)NC(=O)NS(=O)(=O)c1cccc(Br)c1)c1ccc(OC)cc1 [Example 112, (S)-2-(3-((3-bromophenyl)sulfonyl)ureido)-N-ethyl-N-(4-methoxyphenyl)-3-phenylpropanamide]",< 100,
"CN(C(=O)[C@H](Cc1cc(F)cc(F)c1)NC(=O)NS(=O)(=O)c1ccc(F)cc1F)c1ccc2scnc2c1 [Example ZY-17, (S)—N-(benzo[d]thiazol-5-yl)-3-(3,5-difluorophenyl)-2-(3-((2,4-difluorophenyl)sulfonyl)ureido)-N-methylpropanamide]",100 to 1000,
"COc1cccc(N(C)C(=O)[C@H](Cc2ccccc2)NC(=O)NS(=O)(=O)c2ccccc2C)c1 [Example 166, (S)—N-(3-methoxyphenyl)-N-methyl-3-phenyl-2-(3-(o-tolylsulfonyl)ureido)propanamide]",100 to 1000,240
"Cc1ccccc1S(=O)(=O)NC(=O)N[C@@H](Cc1ccccc1)C(=O)N1CCc2cc(S(=O)(=O)N(C)C)ccc21 [Example 185, (S)—N,N-dimethyl-1-(3-phenyl-2-(3-(o-tolylsulfonyl)ureido)propanoyl)indoline-5-sulfonamide]",1000 to 10000,
"COc1ccc(N(CC(C)C)C(=O)[C@H](Cc2ccccc2)NC(=O)NS(=O)(=O)c2ccccc2C)cc1 [Example ZY-6, (S)—N-isobutyl-N-(4-methoxyphenyl)-3-phenyl-2-(3-(o-tolylsulfonyl)ureido)propanamide]",1000 to 10000,
"CNS(=O)(=O)c1cccc(N(C)C(=O)[C@H](Cc2cc(F)cc(F)c2)NC(=O)NS(=O)(=O)c2ccccc2C)c1 [Example CA-106, (S)-3-(3,5-difluorophenyl)-N-methyl-N-(3-(N-methylsulfamoyl)phenyl)-2-(3-(o-tolylsulfonyl)ureido)propanamide]",1000 to 10000,
"Cc1ccccc1S(=O)(=O)NC(=O)N[C@@H](Cc1ccccc1)C(=O)N(C)c1ccc(Cl)cc1 [Example 164, (S)—N-(4-chlorophenyl)-N-methyl-3-phenyl-2-(3-(o-tolylsulfonyl)ureido)propanamide]",100 to 1000,
"COc1ncc(-c2ccccc2S(=O)(=O)NC(=O)N[C@@H](Cc2ccccc2)C(=O)N(C)c2ccc3c(c2)OCO3)cn1 [Example 130, (S)—N-(benzo[d][1,3]dioxol-5-yl)-2-(3-((2-(2-methoxypyrimidin-5-yl)phenyl)sulfonyl)ureido)-N-methyl-3-phenylpropanamide]",1000 to 10000,
